US12053547B2, “Liposomal compositions and methods of use” (Alastin Skincare, Inc., priority 2018, dated 2024)

Assay: log Kow (penetration ability) of test molecules
Type: physicochemical
Experimental: A water suspension of liposomes was prepared with 1.5% of hydrophilic molecule A or 300 ppm (0.03%) hydrophilic molecule B, and 27% Pro-Lipo™ Neo. […] Molecule B was a hexapeptide (hexapeptide-38) with a molecular weight of (870 g/mol) and a penetration ability log Kow of −1.13. A water solution with 1.5% A or 300 ppm B was used as a control (non-entrapped molecule).

For `Cn1c(=O)c2c(ncn2C)n(C)c1=O` [Molecule A, caffeine], which “penetration ability log Kow” value is on record?
The value was −0.07.

Which “penetration ability log Kow” value does the source give for hexapeptide-38 [Molecule B] here?
Its value is −1.13.
